Results taken from ChEMBL document CHEMBL1201862, “PubChem BioAssay data set” (2004).
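Following 48 hours of exposure in 96-well plates, responses at five concentrations were used to interpolate endpoints linearly. At the GI50, growth is halved.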 Calls of active or inactive are those of the source. Rule as the data show it: active = GI50 up to about 1.1 µM and inactive = higher.

Legend:
Assay in all cases: DTP human tumour cell line panel, 48 h
HCT-15 = test system: HCT-15
SK-MEL-2 = test system: SK-MEL-2
U-251 = test system: U-251
HOP-62 = test system: HOP-62
A498 = test system: A498
NCI-H23 = test system: NCI-H23
UACC-257 = test system: UACC-257
MOLT-4 = test system: MOLT-4
SK-MEL-28 = test system: SK-MEL-28
UO-31 = test system: UO-31
CAKI-1 = test system: CAKI-1
NCI-H226 = test system: NCI-H226
SF-268 = test system: SF-268
OVCAR-3 = test system: OVCAR-3
SW-620 = test system: SW-620
PC-3 = test system: PC-3
SN12C = test system: SN12C
A549 = test system: A549
IGROV-1 = test system: IGROV-1

| SMILES | GI50 (HCT-15) [µM] | GI50 (SK-MEL-2) | GI50 (U-251) | GI50 (HOP-62) | GI50 (A498) | GI50 (NCI-H23) | GI50 (UACC-257) | GI50 (MOLT-4) | GI50 (SK-MEL-28) | GI50 (UO-31) | GI50 (CAKI-1) | GI50 (NCI-H226) | GI50 (SF-268) | GI50 (OVCAR-3) | GI50 (SW-620) | GI50 (PC-3) | GI50 (SN12C) | GI50 (A549) | GI50 (IGROV-1) |
| --- | --- | --- | --- | --- | --- | --- | --- | --- | --- | --- | --- | --- | --- | --- | --- | --- | --- | --- | --- |
| CCOC(=O)c1c(N2CCCC2)[nH]c(=O)c(C(c2ccc(OC)cc2)c2c(O)c(C(=O)OCC)c(N3CCCC3)[nH]c2=O)c1O | > 100 | 5 µM (inactive) | 48.9 µM (inactive) | 46.6 µM (inactive) | > 100 µM (inactive) | 82 µM (inactive) | > 100 µM (inactive) | > 100 µM (inactive) | > 100 µM (inactive) | > 100 µM (inactive) | 28.4 µM (inactive) | > 100 µM (inactive) | 49.5 µM (inactive) | > 100 µM (inactive) | > 100 µM (inactive) | > 100 µM (inactive) | > 100 µM (inactive) | > 100 µM (inactive) |  |
| COc1ccc(CCCCl)c(C2=NCCc3cc(OC)c(OC)cc32)c1 | 71.1 | 39.7 µM (inactive) | 23.6 µM (inactive) | 91.2 µM (inactive) | > 100 µM (inactive) | 31.5 µM (inactive) | 42.3 µM (inactive) | 41.6 µM (inactive) | 63.2 µM (inactive) | 38 µM (inactive) | 39.7 µM (inactive) | 27.9 µM (inactive) | 49.3 µM (inactive) | 92.7 µM (inactive) | 72.1 µM (inactive) | 35.3 µM (inactive) | 54.3 µM (inactive) | 69.7 µM (inactive) | 39.9 µM (inactive) |
| O=C(c1ccccc1Br)C(F)(F)F | > 100 | > 10 µM (inactive) | > 100 µM (inactive) | > 100 µM (inactive) | > 100 µM (inactive) | > 100 µM (inactive) |  | > 100 µM (inactive) | > 100 µM (inactive) | > 100 µM (inactive) | > 100 µM (inactive) | > 100 µM (inactive) | > 100 µM (inactive) | > 100 µM (inactive) | > 100 µM (inactive) | > 100 µM (inactive) | > 100 µM (inactive) | > 100 µM (inactive) | > 100 µM (inactive) |
| CCOC(=O)CCC(C(=O)OCC)n1nc2ccc(Nc3c(C)[n+]([O-])c4cc(Cl)ccc4[n+]3[O-])cc2n1 (stereo not given) | 88.1 | 96.2 µM (inactive) | > 100 µM (inactive) | > 100 µM (inactive) | > 100 µM (inactive) | > 100 µM (inactive) | 94.4 µM (inactive) | 32.3 µM (inactive) |  | 81.8 µM (inactive) | 61.7 µM (inactive) | 62.4 µM (inactive) | 39.1 µM (inactive) | > 100 µM (inactive) | > 100 µM (inactive) | 76.7 µM (inactive) | 73.3 µM (inactive) | > 100 µM (inactive) | > 100 µM (inactive) |
| CC1=C(C(=O)NCCCN(CCO)CCO)CC(C(=O)NCCCN(CCO)CCO)=C(C)N1 | > 100 | > 100 µM (inactive) | > 100 µM (inactive) | > 100 µM (inactive) | 27.4 µM (inactive) | > 100 µM (inactive) | > 100 µM (inactive) | > 100 µM (inactive) |  | 93.5 µM (inactive) | > 100 µM (inactive) | > 100 µM (inactive) | 34.8 µM (inactive) | > 100 µM (inactive) | > 100 µM (inactive) | 59.8 µM (inactive) | > 100 µM (inactive) | > 100 µM (inactive) | > 100 µM (inactive) |
| CCCCCC/C=C\CCCCCCCCCc1cccc(OC)c1O | > 100 | > 100 µM (inactive) | > 100 µM (inactive) | > 100 µM (inactive) | 41.2 µM (inactive) | 86.9 µM (inactive) | > 100 µM (inactive) | > 100 µM (inactive) | > 100 µM (inactive) | > 100 µM (inactive) | > 100 µM (inactive) | > 100 µM (inactive) | > 100 µM (inactive) |  | > 100 µM (inactive) | 63.8 µM (inactive) | > 100 µM (inactive) | > 100 µM (inactive) | > 100 µM (inactive) |
| O=c1[nH]nc(Cc2ccc(Cl)cc2)n1CCO | > 100 | > 100 µM (inactive) | > 100 µM (inactive) |  | > 100 µM (inactive) | > 100 µM (inactive) | > 100 µM (inactive) | > 100 µM (inactive) | > 100 µM (inactive) | > 100 µM (inactive) | > 100 µM (inactive) | > 100 µM (inactive) | > 100 µM (inactive) | > 100 µM (inactive) | > 100 µM (inactive) | > 100 µM (inactive) | > 100 µM (inactive) | > 100 µM (inactive) | > 100 µM (inactive) |
| COc1cc(O)c(/C=N/N=C(\N)NO)c(OC)c1 | 5.04 | > 10 µM (inactive) | > 10 µM (inactive) | 9.93 µM (inactive) | > 10 µM (inactive) | > 10 µM (inactive) | > 10 µM (inactive) |  | > 10 µM (inactive) | > 10 µM (inactive) | > 10 µM (inactive) | 5.11 µM (inactive) | > 10 µM (inactive) | 5.5 µM (inactive) | > 10 µM (inactive) | 6.18 µM (inactive) | > 10 µM (inactive) | > 10 µM (inactive) | > 10 µM (inactive) |
